Read-outs that look alike come from different tables or passages of the source.
Tests used:
COX-I = target: T1, COX-I (Homo sapiens, UniProt P23219); experiment: Whole blood assay for COX-I (TXB2 production); assay type: cell-based
T1 construct: Fresh blood was collected by syringe without anticoagulants from volunteers with consent; from tissue; host or cells: fresh human whole blood from volunteers, no anticoagulant, allowed to clot
Experimental: Fresh blood was collected by syringe without anticoagulants from volunteers with consent. The subjects had no apparent inflammatory conditions and had not taken any medication for at least 7 days prior to blood collection. 500 μl aliquots of human whole blood were immediately incubated with 2 μl of either DMSO vehicle or a test compound at final concentrations for 1 hr at 37 C. to allow the blood to clot. Appropriate treatments (no incubation) were used as blanks. At the end of the incubation, 5 μl of 250 mM Indomethacin was added to stop the reaction. The blood was centrifuged at 6000×g for 5 min at 4 C to obtain serum. A 100 μl aliquot of serum was mixed with 400 μl methanol for protein precipitation. The supernatant was obtained by centrifuging at 6000×g for 5 min at 4 C and was assayed for TXB2 using an enzyme immunoassay kit according to the manufacturer's procedure. For a test compound, the results were expressed as percent inhibition of TXB2 production relative to control incubations containing DMSO vehicle. The data were analyzed by that a test compound at the indicated concentrations was changed log value and was applied simple linear regression. IC50 value was calculated by least squares method.

COX-II = target: T2, COX-II (Homo sapiens, UniProt P35354); experiment: Whole blood assay for COX-II (LPS-induced PGE2 production); assay type: cell-based
T2 construct: lipopolysaccharide for 24 hr at 37 C for induction of COX-2; from tissue; host or cells: fresh heparinized human whole blood from volunteers, LPS-stimulated for 24 hr
T2 sequence (P35354 18-604): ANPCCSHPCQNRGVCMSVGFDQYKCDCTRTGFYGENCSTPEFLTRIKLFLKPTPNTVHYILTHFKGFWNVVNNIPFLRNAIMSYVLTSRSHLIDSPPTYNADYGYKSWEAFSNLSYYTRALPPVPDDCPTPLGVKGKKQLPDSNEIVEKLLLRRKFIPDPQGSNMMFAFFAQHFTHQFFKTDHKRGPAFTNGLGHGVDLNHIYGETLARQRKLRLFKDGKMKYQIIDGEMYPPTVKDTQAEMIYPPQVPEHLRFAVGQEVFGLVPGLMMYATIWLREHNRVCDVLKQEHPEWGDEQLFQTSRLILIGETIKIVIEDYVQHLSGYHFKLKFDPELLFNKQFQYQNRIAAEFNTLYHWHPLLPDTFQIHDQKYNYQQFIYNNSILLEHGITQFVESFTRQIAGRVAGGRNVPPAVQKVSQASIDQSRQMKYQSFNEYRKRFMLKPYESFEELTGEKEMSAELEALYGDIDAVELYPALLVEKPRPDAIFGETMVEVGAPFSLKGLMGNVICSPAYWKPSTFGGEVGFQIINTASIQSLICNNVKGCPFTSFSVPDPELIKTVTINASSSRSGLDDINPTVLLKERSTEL
Experimental: Fresh blood was collected in heparinized tubes by syringe from volunteers with consent. The subjects had no apparent inflammatory conditions and had not taken any medication for at least 7 days prior to blood collection. 500 μl aliquots of human whole blood were incubated with either 2 μl DMSO vehicle or 2 μl of a test compound at final concentrations for 15 min at 37 C This was followed by incubation of the blood with 10 μl of 5 mg/ml lipopolysaccharide for 24 hr at 37 C for induction of COX-2. Appropriate PBS treatments (no LPS) were used as blanks. At the end of the incubation, the blood was centrifuged at 6000×g for 5 min at 4 C to obtain plasma. A 100 μl aliquot of plasma was mixed with 400 μl methanol for protein precipitation. The supernatant was obtained by centrifuging at 6000×g for 5 min at 4 C and was assayed for PGE2 using a radioimmunoassay kit after conversion of PGE2 to its methyl oximate derivative according to the manufacturer's procedure. For a test compound, the results were expressed as percent inhibition of PGE2 production relative to control incubations containing DMSO vehicle. The data were analyzed by that a test compound at the indicated concentrations was changed log value and was applied simple linear regression. IC50 value was calculated by least squares method.

platelet aggregation = experiment: Inhibiting activity on aggregation of platelet (collagen-induced, platelet-rich plasma); assay type: cell-based; details: human platelet-rich plasma, collagen 0.5 μg/mL as agonist; read-out: IC50 (inhibition of platelet aggregation)
Experimental: Blood from healthy human volunteers was collected into plastic vessels containing 3.8% sodium citrate (1/10 volume). The subject had no taken any compounds for at least seven days prior to blood collection. Platelet-rich plasma was obtained from the supernatant fraction of blood after centrifugation at 1200 r.p.m. for 10 min. Platelet-poor plasma was obtained by centrifugation of the remaining blood at 3000 r.p.m. for 10 min.
Platelet aggregation was measured according to the turbidimetric method with an aggregometer (Hema Tracer). In the cuvette, platelet-rich plasma was pre-incubated for 2 min at 37 C after the addition of compounds or vehicle. In order to quantify the inhibitory effects of each compound, the maximum increase in light transmission was determined from the aggregation curve for 7 min after the addition of agonist. We used collagen as agonist of platelet aggregation in this study. The final concentration of collagen was 0.5 μg/mL. The effect of each compound was expressed as percentage inhibition agonist-induced platelet aggregation compared with vehicle treatment. Data are presented as the mean±S.E.M. for six experiments. The IC50 value was obtained by linear regression, and is expressed as the compound concentration required to produce 50% inhibition of agonist-induced platelet aggregation in comparison to vehicle treatment.

[1] = tested on: adjuvant arthritis in Lewis rats; experiment: Analgesic activity: effect on adjuvant arthritis in rats (Randall-Selitto pain threshold); assay type: in vivo, rat; details: dose 3.2 mg/kg; ratio of mechanical pain threshold of treated vs non-treated arthritic rats, 2 hr after administration; ratio of 1.5 = effective dose
[2] = human whole blood, 1 hr at 37 C, TXB2 production, read-out: COX-I IC50
[3] = human whole blood, LPS 24 hr at 37 C, PGE2 production, read-out: COX-II IC50

T1 sequence (P23219 24-599): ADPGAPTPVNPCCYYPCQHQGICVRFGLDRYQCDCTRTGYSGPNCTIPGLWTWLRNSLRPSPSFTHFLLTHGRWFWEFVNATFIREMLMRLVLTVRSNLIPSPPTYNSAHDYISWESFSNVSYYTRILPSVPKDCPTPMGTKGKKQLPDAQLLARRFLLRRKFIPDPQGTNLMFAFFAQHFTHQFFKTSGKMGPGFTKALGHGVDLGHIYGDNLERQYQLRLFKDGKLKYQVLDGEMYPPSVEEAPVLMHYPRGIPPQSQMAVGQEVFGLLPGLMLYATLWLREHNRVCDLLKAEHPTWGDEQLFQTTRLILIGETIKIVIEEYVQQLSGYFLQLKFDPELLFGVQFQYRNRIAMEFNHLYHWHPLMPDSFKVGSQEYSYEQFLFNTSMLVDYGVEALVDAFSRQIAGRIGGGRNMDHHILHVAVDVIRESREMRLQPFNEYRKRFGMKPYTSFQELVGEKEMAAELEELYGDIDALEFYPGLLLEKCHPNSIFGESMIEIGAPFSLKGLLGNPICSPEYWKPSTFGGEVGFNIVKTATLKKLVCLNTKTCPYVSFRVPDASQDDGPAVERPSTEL

SMILES | IC50 (COX-I; [2]) [µM] | IC50 (COX-II; [3]) [µM] | melting point [°C] | IC50 (platelet aggregation) [µM] | The coefficient of analgesic [1] | IC50 (COX-I) [µM] | IC50 (COX-II) [µM]
COc1ccc(-c2nc(OCC(F)(F)F)nn2-c2ccc(OC)nc2)cc1 [15-(4), 2-methoxy-5-(5-(4-methoxyphenyl)-3-(2,2,2-trifluoroethoxy)-1H-1,2,4-triazol-1-yl)pyridine] | < 0.01 | > 0.1 | 63 to 64 | < 0.02 | – | – | –
COc1ccc(-c2nc(OC3CCCCC3)nn2-c2ccc(OC)cc2)cc1 [Example 25, 1,5-bis(4-methoxyphenyl)-3-cyclohexyloxy-1H-1,2,4-triazole] | < 0.01 | > 0.1 | – | < 0.02 | >=1.5 | – | –
COc1ccc(-c2nc(OCc3cscn3)nn2-c2ccc(OC)cc2)cc1 [Example 20, 1,5-bis(4-methoxyphenyl)-3-(1,3-thiazol-4-ylmethoxy)-1H-1,2,4-triazole] | < 0.01 | > 0.1 | – | – | – | – | –
COc1ccc(-c2nc(OC(C)C)nn2-c2ccc(OC)cc2)cc1 [Example 23, 1,5-bis(4-methoxyphenyl)-3-(2-propoxy)-1H-1,2,4-triazole] | < 0.01 | > 0.1 | – | – | – | – | –
C#CCOc1nc(-c2ccc(OC)cc2)n(-c2ccc(OC)cc2)n1 [Example 17, 1,5-bis(4-methoxyphenyl)-3-(2-propynyloxy)-1H-1,2,4-triazole] | < 0.01 | > 0.1 | 81 to 82 | – | – | – | –
COc1ccc(-c2nc(C(F)(F)F)nn2-c2ccc(OC)nc2)cc1 [12(2), 2-methoxy-5-[5-(4-methoxyphenyl)-3-(trifluoromethyl)-1H-1,2,4-triazol-1-yl]pyridine] | < 0.01 | > 0.1 | – | – | – | – | –
COc1ccc(-c2nc(OC(=O)N(C)C)nn2-c2ccc(OC)cc2)cc1 [Example 16, 1,5-bis(4-methoxyphenyl)-1H-1,2,4-triazol-3-yl dimethylcarbamate] | – | – | 121 to 123 | – | – | < 0.01 | > 0.1
COc1ccc(-c2nc(OCc3cc(C)on3)nn2-c2ccc(OC)cc2)cc1 [Example 19, 1,5-bis(4-methoxyphenyl)-3-[(5-methyl-3-isoxazolyl)methoxy]-1H-1,2,4-triazole] | < 0.01 | > 0.1 | – | < 0.02 | – | – | –

Second part, led by results:

IC50 (COX-I; [2]) [µM] | IC50 (COX-II; [3]) [µM] | melting point [°C] | IC50 (platelet aggregation) [µM] | SMILES | The coefficient of analgesic [1] | IC50 (COX-I) [µM] | IC50 (COX-II) [µM]
< 0.01 | > 0.1 | – | – | COc1ccc(-c2nc(OCC(=O)N(C)C)nn2-c2ccc(OC)cc2)cc1 [Example 21, 2-{[1,5-bis(4-methoxyphenyl)-1H-1,2,4-triazol-3-yl]oxy}-N,N-dimethylacetamide] | – | – | –
< 0.01 | > 0.1 | – | – | COc1ccc(-c2nc(SC)nn2-c2ccc(OC)cc2)cc1 [6(4), 1,5-bis(4-methoxyphenyl)-3-(methylthio)-1H-1,2,4-triazole] | – | – | –
< 0.01 | > 0.1 | – | – | COc1ccc(-c2nc(S(C)(=O)=O)nn2-c2ccc(OC)cc2)cc1 [6(6), 1,5-bis(4-methoxyphenyl)-3-(methylsulfonyl)-1H-1,2,4-triazole] | – | – | –
< 0.01 | > 0.1 | – | – | COc1ccc(-n2nc(C(F)(F)F)nc2-c2ccc(OC)nc2)cc1 [Example 8, 2-methoxy-5-[1-(4-methoxyphenyl)-3-(trifluoromethyl)-1H-1,2,4-triazol-5-yl]pyridine] | – | – | –
< 0.01 | > 0.1 | – | – | COc1ccc(-c2nc(OCc3ccc(Cl)cc3)nn2-c2ccc(OC)cc2)cc1 [Example 26, 1,5-bis(4-methoxyphenyl)-3-(4-chlorophenylmethoxy)-1H-1,2,4-triazole] | – | – | –
– | – | – | < 0.02 | COc1ccc(-c2nc(OC)nn2-c2ccc(OC)cc2)cc1 [5(4), 3-Methoxy-1,5-bis(4-methoxyphenyl)-1H-1,2,4-triazole] | >=1.5 | – | –
< 0.01 | > 0.1 | – | < 0.02 | COc1ccc(-c2nc(C(F)(F)F)nn2-c2ccc(OC)cc2)cc1 [1(2), 1,5-bis(4-methoxyphenyl)-3-(trifluoromethyl)-1H-1,2,4-triazole] | >=1.5 | – | –
– | – | 82 to 83 | – | COc1ccc(-n2nc(OCC(F)(F)F)nc2-c2ccc(OC)nc2)cc1 [14-(3), 2-methoxy-5-(1-(4-methoxyphenyl)-3-(2,2,2-trifluoroethoxy)-1H-1,2,4-triazole-5-yl)pyridine] | – | – | –
